Where two headings read alike, the source gives them in different places.
Key:
[1] = test system: phosphorylated AKT Ser473 (pAKT S473), mTORC2 activity, PC3 cells; assay: mTOR target engagement assay, immunofluorescent cell-based, pAKT S473 readout (mTORC2 activity)
In short: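 After blocking, cells were stained overnight at 4 °C with anti-pAKT S473 antibody, then a fluorescent secondary; inhibition was read as reduced fluorescence intensity.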

[2] = test system: phosphorylated 4E-BP1 Thr37/46 (p4E-BP1 Thr37/46), mTORC1 activity, PC3 cells; assay: mTOR target engagement assay, immunofluorescent cell-based, p4E-BP1 Thr37/46 readout (mTORC1 activity); conditions: read-out: p4E-BP1 Thr37/46 IC50
In short: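 Seed PC3 cells overnight; treat with compound dilutions for ninety minutes at 37° C; fix with glyoxal and block; stain with anti-p4E-BP1 Thr37/46 overnight at 4° C, then fluorescent secondary; read fluorescence and fit IC50 against DMSO-only controls.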

[3] = Homo sapiens, PC-3, Table 7-4, PC3 cells
[4] = Homo sapiens, PC-3, Table 3-1, PC3 cells
[5] = Homo sapiens, PC-3, PC3 cells, compound treatment ninety minutes at 37° C.
[6] = PC3 cells, compound treatment ninety minutes at 37° C.
[7] = Homo sapiens, PC-3, Table 6-1, PC3 cells

Question: With `CC(=O)c1c([C@@H]2C[C@H]3CC[C@@H](C2)N3C(=O)c2nnc[nH]2)nc2c(-c3ccc([C@@H](C)O)nc3)cnn2c1N` [Compound 7.33, 1-(5-((1R,3s,5S)-8-(4H-1,2,4-triazole-3-carbonyl)-8-azabicyclo[3.2.1]octan-3-yl)-7-amino-3-(6-((R)-1-hydroxyethyl)pyridin-3-yl)pyrazolo[1,5-a]pyrimidin-6-yl)ethanone] as the compound, how does the IC50 [1, 3] read?
Answer: 100 to 1000 nM

Question: What about the IC50 [2, 3] of the same compound?
Answer: 100 to 1000 nM

Question: Which results are given for `CC(=O)Nc1nnc(C(=O)N2[C@@H]3CC[C@H]2C[C@H](c2nc4c(-c5ccc(-c6ccccc6)nc5)cnn4c(N)c2S(C)(=O)=O)C3)[nH]1` [Compound 3.89]?
Answer: IC50 [1, 4]: 100 to 1000 nM; IC50 [2, 4]: 100 to 1000 nM

Question: Which results are given for `CC(=O)c1c([C@@H]2C[C@H]3CC[C@@H](C2)N3C(=O)c2nnc[nH]2)nc2c(-c3ccc(-c4ccc5nn(C)cc5c4)nc3)cnn2c1N` [Compound 1.1.70, 1-(5-((1R,3s,5S)-8-(4H-1,2,4-triazole-3-carbonyl)-8-azabicyclo[3.2.1]octan-3-yl)-7-amino-3-(6-(2-methyl-2H-indazol-5-yl)pyridin-3-yl)pyrazolo[1,5-a]pyrimidin-6-yl)ethanone]?
Answer: IC50 [1, 5]: 1 to 100 nM; IC50 [2, 5]: 1 to 100 nM

Question: Which IC50 [1, 5] does the source give for `CC(=O)c1c([C@@H]2C[C@H]3CC[C@@H](C2)N3C(=O)c2nnc[nH]2)nc2c(-c3cnn(-c4ccccn4)c3)cnn2c1N` [Compound 1.1.161, 1-(5-((1R,3s,5S)-8-(4H-1,2,4-triazole-3-carbonyl)-8-azabicyclo[3.2.1]octan-3-yl)-7-amino-3-(1-(pyridin-2-yl)-1H-pyrazol-4-yl)pyrazolo[1,5-a]pyrimidin-6-yl)ethanone] here?
Answer: 100 to 1000 nM

Question: What about the IC50 [2, 5] of the same compound?
Answer: 100 to 1000 nM

Question: What does the source list for `Cc1[nH]nc(-c2ccc(-c3cnn4c(N)c(C5CC5)c([C@@H]5C[C@H]6CC[C@@H](C5)N6C(=O)CO)nc34)cn2)c1F` [Compound 4.20, 1-((1R,3s,5S)-3-(7-amino-6-cyclopropyl-3-(6-(4-fluoro-5-methyl-1H-pyrazol-3-yl)pyridin-3-yl)pyrazolo[1,5-a]pyrimidin-5-yl)-8-azabicyclo[3.2.1]octan-8-yl)-2-hydroxyethanone]?
Answer: IC50 [1, 5]: 100 to 1000 nM; IC50 [2, 5]: 100 to 1000 nM

Question: Which results are given for `CC(=O)c1c(C2CC3COCC(C2)N3C(=O)c2nc[nH]n2)nc2c(-c3ccc(-c4ccccc4)nc3)cnn2c1N` (stereo not shown) [Compound 8.27, 1-(5-(9-(1H-1,2,4-triazole-3-carbonyl)-3-oxa-9-azabicyclo[3.3.1]nonan-7-yl)-7-amino-3-(6-phenylpyridin-3-yl)pyrazolo[1,5-a]pyrimidin-6-yl)ethanone]?
Answer: IC50 ([1]; Homo sapiens, PC-3, PC3 cells): 1 to 100 nM; IC50 ([2]; Homo sapiens, PC-3, PC3 cells): 100 to 1000 nM

Question: For `CC(=O)c1c([C@@H]2C[C@H]3CC[C@@H](C2)N3C(=O)CO)nc2c(-c3ccc(-c4cc(F)cc(F)c4)nc3)cnn2c1N` [Compound 1.1.101, 1-((1R,3r,5S)-3-(6-acetyl-7-amino-3-(6-(3,5-difluorophenyl)pyridin-3-yl)pyrazolo[1,5-a]pyrimidin-5-yl)-8-azabicyclo[3.2.1]octan-8-yl)-2-hydroxyethanone], which IC50 [1, 5] is on record?
Answer: 100 to 1000 nM

Question: And the IC50 [2, 5]?
Answer: 100 to 1000 nM

Question: For “(1R,3s,5S)-2-methoxyethyl 3-(6-acetyl-7-amino-3-(6-(1-methyl-1H-pyrazol-3-yl)pyridin-3-yl)pyrazolo[1,5-a]pyrimidin-5-yl)-8-azabicyclo[3.2.1]octane-8-carboxylate [Compound 1.1.109]”, which IC50 [1, 6] is on record?
Answer: 1000 to 10000 nM

Question: What about the IC50 [2, 6] of the same compound?
Answer: 1000 to 10000 nM

Question: Which results are given for `Cc1cc(C(=O)N2[C@@H]3CC[C@H]2C[C@H](c2nc4c(-c5ccc(-c6ccccc6)nc5)ccn4c(N)c2S(C)(=O)=O)C3)[nH]n1` [Compound 3.81, ((1R,3s,5S)-3-(7-amino-6-(methyslulfonyl)-3-(6-phenylpyridin-3-yl)pyrazolo[1,5-a]pyrimidin-5-yl)-8-azabicyclo[3.2.1]octan-8-yl)(3-methyl-1H-pyrazol-5-yl)methanone]?
Answer: IC50 [1, 4]: 100 to 1000 nM; IC50 [2, 4]: 100 to 1000 nM

Question: With `CC(=O)c1c([C@@H]2C[C@H]3CC[C@@H](C2)N3C(=O)CO)nc2c(-c3ccc(-n4cccn4)nc3)cnn2c1N` [Compound 1.1.178, 1-((1R,3s,5S)-3-(3-(6-(1H-pyrazol-1-yl)pyridin-3-yl)-6-acetyl-7-aminopyrazolo[1,5-a]pyrimidin-5-yl)-8-azabicyclo[3.2.1]octan-8-yl)-2-hydroxyethanone] as the compound, how does the IC50 [1, 5] read?
Answer: 1 to 100 nM

Question: And the IC50 [2, 5]?
Answer: 100 to 1000 nM

Question: `CC(=O)c1c([C@@H]2C[C@H]3CC[C@@H](C2)N3C(=O)[C@@H](C)O)nc2c(-c3ccc(-c4ncc[nH]4)nc3)cnn2c1N` [Compound 6.12, (R)-1-((1R,3S,5S)-3-(3-(6-(1H-imidazol-2-yl)pyridin-3-yl)-6-acetyl-7-aminopyrazolo[1,5-a]pyrimidin-5-yl)-8-azabicyclo[3.2.1]octan-8-yl)-2-hydroxypropan-1-one] was tested. Which IC50 [1, 7] did it give?
Answer: 1 to 100 nM

Question: What about the IC50 [2, 7] of the same compound?
Answer: 1 to 100 nM

Question: For `CNC(=O)Nc1ccc(-c2cnn3c(N)cc([C@@H]4C[C@H]5CC[C@@H](C4)N5C(=O)CO)nc23)cc1` [Compound 8.82, 1-(4-(7-amino-5-((1R,3s,5S)-8-(2-hydroxyacetyl)-8-azabicyclo[3.2.1]octan-3-yl)pyrazolo[1,5-a]pyrimidin-3-yl)phenyl)-3-methylurea], which IC50 ([1]; Homo sapiens, PC-3, PC3 cells) is on record?
Answer: > 10000 nM

Question: What about the IC50 ([2]; Homo sapiens, PC-3, PC3 cells) of the same compound?
Answer: > 10000 nM

Question: `COc1cc(F)c(-c2ccc(-c3cnn4c(N)c(S(C)(=O)=O)c([C@@H]5C[C@H]6CC[C@@H](C5)N6C(=O)c5nnc[nH]5)nc34)cn2)cc1F` [Compound 3.59, ((1R,3s,5S)-3-(7-amino-3-(6-(2,5-difluoro-4-methoxyphenyl)pyridin-3-yl)-6-(methylsulfonyl)pyrazolo[1,5-a]pyrimidin-5-yl)-8-azabicyclo[3.2.1]octan-8-yl)(4H-1,2,4-triazol-3-yl)methanone] was tested. Which IC50 [1, 4] did it give?
Answer: 1 to 100 nM

Question: What about the IC50 [2, 4] of the same compound?
Answer: 1 to 100 nM

Question: What does the source list for `CC(=O)c1c([C@@H]2C[C@H]3CC[C@@H](C2)N3C(=O)C2CCS(=O)(=O)N2)nc2c(-c3ccc(-c4ccccc4)nc3)cnn2c1N` (mixture of isomers) [Compound 1.1.4, (EXO)-3-[6-ACETYL-7-AMINO-3-(6-PHENYL-3-PYRIDINYL)PYRAZOLO[1,5-a]PYRIMIDIN-5-YL]-8-[(1,1-DIOXIDO-3-ISOTHIAZOLIDINYL)CARBONYL]-8-AZABICYCLO[3.2.1]OCTANE (MIX. OF 2 DIASTEREOMERS)]?
Answer: IC50 [1, 5]: 100 to 1000 nM; IC50 [2, 5]: 100 to 1000 nM

Question: For `CC(=O)c1c([C@@H]2C[C@H]3CC[C@@H](C2)N3S(=O)(=O)c2nnc[nH]2)nc2c(-c3ccc(-c4ccccc4)nc3)cnn2c1N` [Compound 1.1.42, 1-(5-((1R,3s,5S)-8-(4H-1,2,4-triazol-3-ylsulfonyl)-8-azabicyclo[3.2.1]octan-3-yl)-7-amino-3-(6-phenylpyridin-3-yl)pyrazolo[1,5-a]pyrimidin-6-yl)ethanone], which IC50 [1, 5] is on record?
Answer: 100 to 1000 nM

Question: And the IC50 [2, 5]?
Answer: 100 to 1000 nM

Question: For `CC(=O)c1c([C@@H]2C[C@H]3CC[C@@H](C2)N3C(=O)c2nnc(C)[nH]2)nc2c(-c3ccc(-c4ccc(F)cc4F)nc3)cnn2c1N` [Compound 1.1.165, 1-(7-amino-3-(6-(2,4-difluorophenyl)pyridin-3-yl)-5-((1R,3s,5S)-8-(5-methyl-4H-1,2,4-triazole-3-carbonyl)-8-azabicyclo[3.2.1]octan-3-yl)pyrazolo[1,5-a]pyrimidin-6-yl)ethanone], which IC50 [1, 5] is on record?
Answer: 1 to 100 nM

Question: What about the IC50 [2, 5] of the same compound?
Answer: 1 to 100 nM

Question: What does the source list for `CC(=O)c1c([C@@H]2C[C@H]3CC[C@@H](C2)N3C(=O)CO)nc2c(-c3ccc(-c4ncc[nH]4)cc3)cnn2c1N` [Compound 6.42, 1-((1R,3s,5S)-3-(3-(4-(1H-imidazol-2-yl)phenyl)-6-acetyl-7-aminopyrazolo[1,5-a]pyrimidin-5-yl)-8-azabicyclo[3.2.1]octan-8-yl)-2-hydroxyethanone]?
Answer: IC50 [1, 7]: 1 to 100 nM; IC50 [2, 7]: 1 to 100 nM

Question: `CC(=O)c1c([C@@H]2C[C@H]3CC[C@@H](C2)N3C(=O)CO)nc2c(-c3ccc(-c4ccn(C)n4)nc3)cnn2c1N` [Compound 1.1.60, 1-((1R,3s,5S)-3-(6-acetyl-7-amino-3-(6-(1-methyl-1H-pyrazol-3-yl)pyridin-3-yl)pyrazolo[1,5-a]pyrimidin-5-yl)-8-azabicyclo[3.2.1]octan-8-yl)-2-hydroxyethanone] was tested. Which IC50 [1, 5] did it give?
Answer: 100 to 1000 nM

Question: What about the IC50 [2, 5] of the same compound?
Answer: 100 to 1000 nM

Question: With `CS(=O)(=O)c1c([C@H]2CC3CC[C@H](C2)N3C(=O)c2ncn[nH]2)nc2c(-c3ccc(C4CCC4)nc3)cnn2c1N` [Compound 3.167, ((1R,3s,5S)-3-(7-amino-3-(6-cyclobutylpyridin-3-yl)-6-(methylsulfonyl)pyrazolo[1,5-a]pyrimidin-5-yl)-8-azabicyclo[3.2.1]octan-8-yl)(1H-1,2,4-triazol-5-yl)methanone] as the compound, how does the IC50 [1, 4] read?
Answer: 100 to 1000 nM

Question: What about the IC50 [2, 4] of the same compound?
Answer: 100 to 1000 nM

Question: Which results are given for `CC(=O)c1c([C@@H]2C[C@H]3CC[C@@H](C2)N3C(=O)c2nnc(N)[nH]2)nc2c(-c3ccc(C(O)(C(F)(F)F)C(F)(F)F)nc3)cnn2c1N` [Compound 7.78, 1-(7-amino-5-((1R,3s,5S)-8-(5-amino-4H-1,2,4-triazole-3-carbonyl)-8-azabicyclo[3.2.1]octan-3-yl)-3-(6-(1,1,1,3,3,3-hexafluoro-2-hydroxypropan-2-yl)pyridin-3-yl)pyrazolo[1,5-a]pyrimidin-6-yl)ethanone]?
Answer: IC50 ([1]; Homo sapiens, PC-3, PC3 cells): 100 to 1000 nM; IC50 ([2]; Homo sapiens, PC-3, PC3 cells): 100 to 1000 nM

— US9227971B2, “Pyrazolo[1,5-a]pyrimidine compounds as mTOR inhibitors” (Merck Sharp & Dohme Corp., priority 2010, dated 2016)
